{
  "source": "paper PMC6148246",
  "about": "“HS-1371, a novel kinase inhibitor of RIP3-mediated necroptosis” (Experimental & Molecular Medicine, 2018)",
  "key": {"L929": {"system": "L929", "test": "TNF plus zVAD-induced necroptosis in L929 cells", "type": "cell-based, mouse", "experimental": "Cells were pretreated with DAB or HS-1371 for 2 h and then treated with TSZ (6 h for immunoblotting, 24 h for cell death assay). Cell lysates were analyzed by immunoblotting (left bottom panel), and cell viability was analyzed by MTT assay (right panel). The results are presented as means ± SEM. *P < 0.05, **P < 0.01, ***P < 0.001. c, d HS-1371 had the same effect on mouse cells. L929 (mouse sarcoma, c) and MEF (mouse embryonic fibroblast, d) cells were pretreated with inhibitors and then necroptosis was induced by TNF. Cell lysates were analyzed by immunoblotting (upper panel), and cell viability was analyzed by MTT assay (bottom panel). The results are presented as means ± SEM. *P < 0.05, **P < 0.01, ***P < 0.001"}, "HT-29 cells": {"system": "HT-29 cells", "test": "TSZ-induced necroptotic cell death in HT-29 cells (MTT assay)", "type": "cell-based", "experimental": "Cell viability was determined using tetrazolium dye colorimetric tests (the MTT assay) read at 570 nm. PI staining was quantified using propidium iodide (Cat. No. 51-66211E, BD Biosciences). Lactate dehydrogenase (LDH) leakage was quantified using the […] according to the manufacturer’s instructions. The LDH absorbance was read at 490 nm, and the mean ± STDEV of duplicates is presented.\nHT-29 cells were pretreated with four tested inhibitors for 2 h and then treated with TSZ (6 h for immunoblotting, 24 h for cell death assay). Cell lysates were analyzed by immunoblotting, and cell viability was analyzed by MTT assay or phase-contrast microscopy. The results are presented as the means ± SEM. *P < 0.05, **P < 0.01, ***P < 0.001. b Protection of necroptosis by HS-1371 treatment is similar with dabrafenib, which abolished downstream events. HT-29 cells were pretreated with various necroptosis inhibitors and HS-1371 before TSZ treatment. Cell lysates were analyzed by immunoblotting, and cell viability was analyzed by MTT assay (left panel). Cells were stained with phospho-MLKL antibody and analyzed by confocal fluorescence microscopy (middle panel), and cell death was further analyzed by FACS analysis after PI staining (right panel). c HS-1371 protects cells from TNF-induced necroptosis in a dose-dependent manner. HT-29 cells were pretreated with indicated concentrations of HS-1371 and then treated with TSZ (6 h for immunoblotting, 24 h for cell death assay). Cell lysates were analyzed by immunoblotting, and cell viability was analyzed by MTT assay or phase-contrast microscopy. The results are presented as means ± SEM. *P < 0.05, **P < 0.01, ***P < 0.001 TEXT PRINTED IN THE PICTURE: (b) TSZ: 20.7 | (b) TSZ + Nec-1: 5.8 | (b) TSZ + DAB: 5.5 | (b) TSZ + 1371: 6.8 DOUBTS OF THE COPYIST ABOUT THIS PICTURE: Panel b, flow cytometry plots: the red gate numbers are printed without a measure or unit, so none is given / Panel b: the 'Untreated' control plot prints 7.7; left out because it is not a substance"}, "necrosome complex": {"target": "T1, necrosome complex (Homo sapiens, UniProt Q9Y572)", "T1 construct": "endogenous in cells; host or cells: HT-29", "T1 sequence (Q9Y572 whole entry, one chain of several)": "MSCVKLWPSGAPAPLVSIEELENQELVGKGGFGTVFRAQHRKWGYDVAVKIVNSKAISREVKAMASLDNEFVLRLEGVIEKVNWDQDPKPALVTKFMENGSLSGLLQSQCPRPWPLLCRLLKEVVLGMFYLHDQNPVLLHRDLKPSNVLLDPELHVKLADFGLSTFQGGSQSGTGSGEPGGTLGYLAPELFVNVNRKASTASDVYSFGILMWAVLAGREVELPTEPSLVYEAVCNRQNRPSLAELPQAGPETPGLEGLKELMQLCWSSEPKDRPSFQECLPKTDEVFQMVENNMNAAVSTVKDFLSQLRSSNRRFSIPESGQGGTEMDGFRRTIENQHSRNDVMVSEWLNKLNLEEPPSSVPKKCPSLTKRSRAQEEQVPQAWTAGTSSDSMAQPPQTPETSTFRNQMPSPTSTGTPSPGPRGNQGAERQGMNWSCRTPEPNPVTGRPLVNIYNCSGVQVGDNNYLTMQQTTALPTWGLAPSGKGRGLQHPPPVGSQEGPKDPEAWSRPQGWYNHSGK", "test": "Necrosome complex formation, anti-RIP3 immunoprecipitation in HT-29 cells", "type": "cell-based", "conditions": "HT-29, 5 μM pretreated 2 h, TSZ 4 h", "experimental": "Cells were rinsed in cold phosphate-buffered saline (PBS) and lysed in M2 buffer containing 20 mM Tris at pH 7, 0.5% NP-40, 250 mM NaCl, 3 mM EDTA, 3 mM EGTA, 2 mM DTT, 0.5 mM PMSF, 20 mM β-glycerol phosphate, 1 mM sodium vanadate, and 1 μg/mL leupeptin. The cell extracts were subjected to western blot analysis. For immunoprecipitation, lysates were mixed and precipitated with antibody and protein A-agarose beads overnight or for 4 h at 4 °C. Bound proteins were removed by boiling in SDS and resolved by SDS-PAGE, and immunoblotting was visualized by enhanced chemiluminescence (ECL, Amersham).\nFig. 2 Novel inhibitors can block RIP3 S227 phosphorylation. a Western blotting showing various kinase inhibitor effects on RIP3 S227 auto-phosphorylation. HT-29 cells were treated with four tested kinase inhibitors (1308, 1336, 1338, and 1371, 10 μM) for 9 h. As a control, KK5101 (Trk alpha inhibitor) and HS829 (IKK beta inhibitor) were also treated at a concentration of 10 μM for 9 h. […] HT-29 cells were treated with 4 tested kinase inhibitors for 24 h, and cell viability was analyzed by MTT assay or phase-contrast microscopy. […] Cell lysates were analyzed by immunoblotting. f HT-29 cells were pretreated with Nec-1 (40 μM), DAB (5 μM) or HS-1371 (5 μM) for 2 h and then treated with TSZ for 4 h. […] Immunoprecipitates and total lysates were analyzed by Western blotting"}, "RIP3": {"target": "RIP3 (Homo sapiens, UniProt Q9Y572)", "sequence (Q9Y572 whole entry)": "as the sequence (Q9Y572 whole entry, one chain of several) above", "test": "Mechanism of action / ATP competition study with RIP3 enzyme", "type": "biochemical", "conditions": "20 min pre-incubation; Michaelis-Menten and Lineweaver-Burk plots", "experimental": "To understand the interaction modes of these inhibitors within RIP3, the mechanisms of action studies including ATP competition were further performed with HS-1371. A 20 min pre-incubation of the compound and RIP3 enzyme was performed to ensure HS-1371 binding to the enzyme and equilibration. The reactions were monitored every 5–15 min to obtain progress curves with a time course. At each time point, radioisotope signal (^33P) was converted into M phosphate transferred to substrate and was plotted against time. The slopes (or velocity; M/min) were then plotted against ATP concentrations to generate a Michaelis–Menten plot and a subsequent Lineweaver–Burk plot (double-reciprocal plot) using GraphPad Prism software (GraphPad Software Inc., San Diego, CA). The results were further analyzed with global fit using GraFit software."}},
  "data": [
    {"smiles": "Cc1ccc(Oc2ccnc3cc(-c4cnn(C5CCNCC5)c4)ccc23)cc1", "note": "[HS-1371, 7-(1-(Piperidin-4-yl)-1H-pyrazol-4-yl)-4-(p-tolyloxy)quinoline]", "values": [
      {"measurement": "TNF plus zVAD-induced necroptosis", "setting": "L929", "value": "prevented"},
      {"measurement": "TNF-induced cell death, pre-treatment and post-treatment", "setting": "HT-29 cells; HT-29, 5 μM, pretreated 1 h or applied 1 or 2 h after induction", "value": "completely inhibited"},
      {"measurement": "viability in response to TSZ-mediated necroptosis, dose-dependent", "setting": "HT-29 cells; HT-29, indicated concentrations, TSZ 24 h", "value": "effectively restored"},
      {"measurement": "cellular cytotoxicity, post-treatment after TSZ", "setting": "HT-29 cells; HT-29, post-treatment until approximately 5 h after TSZ", "value": "significantly reduced"},
      {"measurement": "rescue from TSZ-induced cell death", "setting": "HT-29 cells; HT-29, pretreated 2 h, TSZ 24 h", "value": "rescued"},
      {"measurement": "necrosome complex formation (MLKL recruitment)", "setting": "necrosome complex", "value": "blocked necrosome complex formation"},
      {"measurement": "mechanism of action upon binding to RIP3", "setting": "RIP3", "value": "time-independent and ATP-competitive"}
    ]}
  ]
}
